What was measured:
[1] = test system: angiotensin II activity; conditions: human vascular extracts; cited from earlier work
[2] = test system: Ascaris suum antigen-induced asthmatic response in conscious sheep; assay: Ascaris suum antigen-induced asthmatic response in conscious sheep; assay type: in vivo; conditions: for early airway response (0-2 h after antigen challenge) / late airway response (6-8 h after antigen challenge): n=2 sheep/group
Description: The efficacy of Compound 17 for the treatment of asthma was evaluated in a validated model of Ascaris suum antigen-induced asthmatic response in conscious sheep (Abraham, W. M., Pharmacology of allergen-induced early and late airway responses and antigen-induced airway hyperresponsiveness in allergic sheep, Pulmonary Pharmacology, 1989, 2, 33-40).
Baseline (BSL) dose response curves to aerosol carbachol were obtained from historical control responses prior to antigen challenge. Baseline values of specific lung resistance (SRL) were obtained and the sheep were then given a specified amount (mg) of the test compound as an inhaled aerosol or as a oral dose at a specified time before antigen challenge. Post-drug measurements of SRL were obtained and the sheep were then challenged with Ascaris suum antigen. Measurements of SRL were obtained immediately after challenge, hourly from 1-6 h after challenge and on the half-hour from 6½-8 h after challenge. Measurements of SRL were obtained 24 h after challenge followed by a 24 h post-challenge with carbachol to measure airway hyperreactivity.
Compound 17 was administered as an aerosol at 4.5 mg/dose (ca. 0.1 mg/Kg/dose, based on a 45 Kg sheep), twice-a-day (BID) for three consecutive days, followed by a dose on day 4, 0.5 h prior to antigen challenge. Ascaris suum antigen challenge was given at the zero time point.
Compound 17 was administered as an oral solution at 15 mg/Kg/dose, twice-a-day (BID) for three consecutive days, followed by a dose on day 4, 2 h prior to antigen challenge. Ascaris suum antigen challenge was given at the zero time point.

[3] = Pharmacokinetic assay for evaluation of oral absorption potential; assay type: in vivo; conditions: rat; male Sprague Dawley rats, oral gavage 15 mg/kg in 20% hydroxy-beta-cyclo dextran, plasma, N = 2
Description: Male Sprague Dawley rats, weighing 250-300 g, were fasted overnight then dosed by oral gavage at a level of 15 mg/kg with a compound. Compounds were formulated in 20% hydroxy-beta-cyclo dextran.
Blood samples (0.5 mL) were collected into lithium heparinized tubes at 0.5, 1.0 and 2.0 h post dose via orbital sinus puncture. Blood samples were centrifuged at 2000 rpm for ˜3 min for cell removal, approximately 200 μL of plasma supernatant was then transferred to a clean vial, frozen then placed on dry ice and delivered to SFBC Analytical Labs, Inc. for analysis.
Plasma samples were prepared as follows. Two hundred microliters of acetonitrile containing 1 μM internal standard was added to 100 μL of plasma to precipitate proteins. Samples were centrifuged at 5000 g for 5 min and supernatant removed for analysis by LC-MS. Two hundred microliters of water was added to adjust sample solvent strength and prevent peak splitting. Calibration standards were prepared by adding appropriate volumes of stock solution directly into plasma and treated identically to collected plasma samples. Calibration standards were prepared in the range of 0.1 to 10 μM for quantitation. LC-MS analysis was performed using MRM (Multiple Reaction Monitoring) detection of characteristic ions for each drug candidate and internal standard.

[4] = aerosol 4.5 mg/dose BID for three days plus dose on day 4, 0.5 h prior to antigen challenge, FIG. 1
[5] = oral solution 15 mg/Kg/dose BID for three days plus dose on day 4, 2 h prior to antigen challenge, FIG. 3

SMILES: NCCCC[C@H](N[C@@H](CCc1ccccc1)C(=O)O)C(=O)N1CCC[C@H]1C(=O)O [lisinopril]
- angiotensin II activity inhibited [1]: about 8%

SMILES: CP(=O)(O)C(C(=O)N/C=C/c1ccc(F)c(F)c1)c1csc2ccc(Cl)cc12 (stereo not drawn) [Cpd 17]
- early airway response (0-2 h after antigen challenge) [2, 4]: unchanged
- late airway response (6-8 h after antigen challenge) [2, 4]: completely blocked
- delayed airway hyperreactivity at 24 h post antigen challenge (carbachol challenge) ([2]; aerosol administration, FIG. 2): completely blocked
- delayed airway hyperreactivity at 24 h post antigen challenge (carbachol challenge) ([2]; oral administration, FIG. 4): completely blocked
- early airway response (0-2 h after antigen challenge) [2, 5]: unchanged
- late airway response (6-8 h after antigen challenge) [2, 5]: completely blocked

SMILES: CCN(CC)C(=O)COP(=O)(OCC(=O)N(CC)CC)C(C(=O)N/C=C/c1ccccc1)c1cccc2ccccc12 (stereo not drawn) [Cpd 180, (Naphthalen-1-yl-styrylcarbamoyl-methyl)-phosphonic acid didiethylcarbamoylmethyl ester]
- Cmax at 2 h [3]: < 0.1 µM

SMILES: CC(C)(C)C(=O)OCOP(C)(=O)C(C(=O)N/C=C/c1ccc(F)c(F)c1)c1csc2ccc(Cl)cc12 (stereo not drawn) [Cpd 182]
- Cmax at 2 h [3]: 11.8 ± 3.26 µM

SMILES: CP(=O)(OCCN)C(C(=O)NC=Cc1ccc(F)c(F)c1)c1csc2ccc(Cl)cc12 (stereo not drawn) [Cpd 184, {(5-Chloro-benzo[b]thiophen-3-yl)-[2-(3,4-difluoro-phenyl)-vinylcarbamoyl]-methyl}-methyl-phosphinic acid 2-amino-ethyl ester]
- Cmax at 2 h [3]: 0.1 ± 0.05 µM

SMILES: CC(C)(C)C(=O)OCOP(=O)(O)C(C(=O)N/C=C/c1ccccc1)c1cccc2ccccc12 (stereo not drawn) [Cpd 177]
- Cmax at 2 h [3]: 2 ± 1.1 µM

SMILES: O=C(N/C=C/c1ccc(F)c(F)c1)C(c1csc2ccc(Cl)cc12)P1(=O)OCCCO1 (stereo not drawn) [Cpd 189, 2-(5-Chloro-benzo[b]thiophen-3-yl)-N-[2-(3,4-difluoro-phenyl)-vinyl]-2-(2-oxo-2,5-[1,3,2]dioxaphosphinan-2-yl)-acetamide]
- Cmax at 2 h [3]: 21.1 ± 2.3 µM

Source: patent US7459444B2, “Inhibitors of chymase” (Janssen Pharmaceutica N.V., priority 2004, dated 2008)
